Structures can show the parent of a compound that is named as a salt. Where two headings read alike, the source gives them in different places.
Experiments:
[1] = biological target: T1R1/T1R3 receptor (Felis catus, UniProt E3UMS2); type: cell-based; details: for Thres +IMP (0.2 mM): threshold in the presence of 0.2 mM IMP; for EC50 +buffer (alone): compound alone in buffer
Description: (§1) HEK293 cells that stably express T1R3 and inducibly express T1R1 were exposed to transmembrane compounds alone or in combination with one or more amino acids and/or one or more nucleotides to activate the umami receptor. Activation of the T1R1/T1R3 receptor was detected by a change in intracellular calcium levels using a calcium sensitive fluorescent dye. Cells that express T1R3 but not T1R1 were used as a control. A FLIPR® Tetra or a FlexStation® 3 was used for data capture.
In each experiment, serial dilutions of up to 10 mM of the transmembrane compound were added to the T1R1/T1R3-expressing cells.

[2] = biological target: cat T1R1/T1R3 receptor (Felis catus, UniProt E3UMS2); experiment: cell-based; details: for Max resp % of IMP / Max. resp. % of IMP: hek293 cells; for function as activators of T1R1/T1R3: in the presence of alanine, in words
Description: as §1, with “nucleotide derivatives” for “transmembrane compounds”, “dye and/or a luminescent reporter system.” for “dye.”

[3] = in the presence of 20 mM alanine, read-out: EC50-with Ala
[4] = in the presence of 0.2 mM IMP, CNBD = Could not be determined

## CC(C)CC(NC(=O)c1ccccc1)C(N)=O (racemic)
[1]; CNBD = Could not be determined
  Thres +IMP (0.2 mM): 0.1 mM

## O=C(O)C1CCCCC1C(=O)Nc1cc(Cl)cc(Cl)c1 (stereo not shown) [2-((3,5-dichlorophenyl)carbamoyl)cyclohexanecarboxylic acid]
[1]; CNBD = Could not be determined
  Thres +IMP (0.2 mM): 0.03 mM

## Nc1ccccc1C(=O)NCCc1ccccc1 [2-amino-N-phenethylbenzamide]
[1]; CNBD = Could not be determined
  Thres +IMP (0.2 mM): 0.01 mM

## CNc1ccccc1C(=O)O[C@H]1C[C@H](n2cnc3c(=O)[nH]c(N)nc32)O[C@@H]1COP(=O)(O)O [2′-Deoxy-3′-O-(N′-methylanthraniloyl) guanosine-5′-O-monophosphate]
[2]
  Activity: active
  Thres: 0.0025 mM
  Max resp % of IMP: 23.7 % of IMP
  Max. resp. % of IMP: 23.7 % of IMP
  function as activators of T1R1/T1R3: activators of T1R1/T1R3

## CNc1ccccc1C(=O)O[C@H]1C[C@H](n2cnc3c(N)ncnc32)O[C@@H]1COP(=O)(O)O [2′-Deoxy-3′-O-(N′-methylanthraniloyl)adenosine-5′-O-monophosphate]
[2]
  Thres: 0.0025 mM
[2]; [3]
  EC50: 0.01 mM

## Nc1ncnc2c1ncn2[C@H]1C[C@H](O)[C@@H](COP(=O)(O)O)O1 [2′-Deoxyadenosine 5′-monophosphate]
[2]
  Thres: 0.035 mM

## Nc1ncnc2c1ncn2[C@H]1CC(OP(=O)(O)O)[C@@H](COP(=O)(O)O)O1 (stereo partly shown) [2′-Deoxyadenosine-3′,5′-O-bisphosphate]
[2]
  Thres: 0.005 mM

## Nc1ncnc2c1ncn2C1CC(O)C(COP(O)(O)=S)O1 (stereo not shown) [2′-Deoxyadenosine-5′-O-monophosphorothioate]
[2]
  Thres: 0.015 mM

## Nc1nc2c(ncn2[C@H]2C[C@H](OP(=O)(O)O)[C@@H](COP(=O)(O)O)O2)c(=O)[nH]1 [2′-Deoxyguanosine-3′,5′-O-bisphosphate]
[2]
  Activity: active
  Max resp ΔF/F: 1.8925 ΔF/F
  Max resp. (ΔF/F): 1.8925 ΔF/F
  Thres: 0.005 mM
  Threshold: 0.005 mM
  Max resp % of IMP: 152.3 % of IMP
  Max. resp. % of IMP: 152.3 % of IMP
  function as activators of T1R1/T1R3: activators of T1R1/T1R3
[2]; [3]
  EC50: 0.02 mM

## Nc1nc2c(ncn2[C@H]2C[C@H](O)[C@@H](COP(O)(O)=S)O2)c(=O)[nH]1 [2′-Deoxyguanosine-5′-O-monophosphorothioate (5′-dGMPS)]
[2]
  Thres: 0.005 mM

## Nc1nc2c(ncn2[C@H]2C[C@H](O)[C@@H](COP(O)(O)=S)O2)c(=O)[nH]1 [2′-Deoxyguanosine-5′-O-monophosphorothioate,sodiumsalt]
[2]
  Thres: 0.0025 mM
  Max resp % of IMP: 86.7 % of IMP

## O=c1[nH]cnc2c1ncn2C1CC(O)C(COP(O)(O)=S)O1 (stereo not shown) [2′-Deoxyinosine-5′-O-monophosphorothioate]
[2]
  Thres: 0.025 mM

## O=c1ccn([C@H]2C[C@H](O)[C@@H](COP(O)(O)=S)O2)c(=O)[nH]1 [2′-Deoxyuridine-5′-O-monophosphosphorothioate (5′-dUMPS)]
[2]
  Activity: active
  Max resp ΔF/F: 0.4200 ΔF/F
  Max resp. (ΔF/F): 0.4200 ΔF/F
  Thres: 5.000 mM
  Threshold: 5.000 mM
  Max resp % of IMP: 43.4 % of IMP

## O=c1ccn([C@H]2C[C@H](O)[C@@H](COP(O)(O)=S)O2)c(=O)[nH]1 [2′-Deoxyuridine-5′-O-monophosphosphorothioate]
[2]; EC50 (mM)
  EC50: > 30 mM
[2]; EC50-with Ala (mM)
  EC50: > 30 mM

## CC(=O)Nc1ccc(C(=O)Nc2cc(-c3ccccc3)nn2CCO)cc1 [4-acetamido-N-(1-(2-hydroxyethyl)-3-phenyl-1H-pyrazol-5-yl)benzamide]
[1]
  EC50 +Alanine (20 mM): CNBD
  Thres +Alanine (20 mM): CNBD
[1]; CNBD = Could not be determined
  EC50 +buffer (alone): CNBD
  Thres +IMP (0.2 mM): CNBD

## CCCCc1nn(CC(=O)N2CCCC2)c(=O)n1Cc1ccccc1 [4-benzyl-3-butyl-1-(2-oxo-2-(pyrrolidin-1-yl)ethyl)-1H-1,2,4-triazol-5(4H)-one]
[1]; CNBD = Could not be determined
  Thres +IMP (0.2 mM): 0.1 mM

## NC(=O)c1ncn(C2OC(COP(=O)(O)O)C(O)C2O)c1N [5-Aminoimidazole-4-carboxamide-1-β-D-ribofuranosyl 5′-monophosphate]
[2]
  Thres: 0.200 mM

## O=P(O)(O)OP(=O)(O)OP(=O)(O)OC[C@H]1O[C@@H](n2cnc3c(Cl)ncnc32)[C@H](O)[C@@H]1O [6-Chloropurine riboside-5′-O-triphosphate]
[1]
  Thres +Alanine (20 mM): 0.01 mM
[1]; overall call for modulation of T1R1/T1R3: active or N/A (= Not active)
  Activity: active
[1]; CNBD = Could not be determined
  Thres +IMP (0.2 mM): 0.003 mM

## O=P(O)(O)OC[C@H]1O[C@@H](n2cnc3c(Cl)ncnc32)C(O)C1O (stereo partly shown) [6-Chloropurineriboside-5′-O-monophosphate]
[2]
  Thres: 0.0005 mM

## Nc1nc2c(ncn2[C@@H]2O[C@H](COP(=O)(O)OP(=O)(O)O)[C@@H](O)[C@H]2O)c(=S)[nH]1 [6-Thioguanosine-5′-O-diphosphate]
[1]; CNBD = Could not be determined
  EC50 +buffer (alone): CNBD
  Thres +IMP (0.2 mM): CNBD
[1]; [4]
  EC50 +IMP (0.2 mM): CNBD
  Max resp ΔF/F +IMP (0.2 mM): 0.0720 ΔF/F

## O=P(O)(O)OCC1OC(n2cnc3c(Cl)ncnc32)C(O)C1O (stereo not shown) [6-chloropurineriboside-5′-O-monophosphate]
[2]
  function as activators of T1R1/T1R3: activators of the T1R1/T1R3 receptor

## Nc1nc2c(ncn2[C@@H]2O[C@H](COP(=O)(O)O)[C@@H](O)[C@H]2O)c(=S)[nH]1 [6-thioguanosine-5′-O-monophosphate]
[2]; [3]
  EC50: 0.0009 mM
[2]
  function as activators of T1R1/T1R3: activators of T1R1/T1R3

## Nc1nc2c(nc(Br)n2[C@@H]2O[C@H](COP(=O)(O)O)[C@@H](O)[C@H]2O)c(=O)[nH]1 [8-Bromoguanosine-5′-O-monophosphate]
[2]
  Thres: 1 mM

## Nc1ncnc2c1nc(Cl)n2[C@@H]1O[C@H](COP(=O)(O)O)[C@@H](O)[C@H]1O [8-Chloroadenosine-5′-O-monophosphate]
[2]
  Thres: 0.2 mM
  Max resp % of IMP: 63.6 % of IMP
  Max. resp. % of IMP: 63.6 % of IMP
[2]; EC50 (mM), + Alanine (20 mM), Table 15
  EC50: 0.8 mM

## Nc1ncnc2c1ncn2C1OC(COP(=O)(O)O)C(OP(=O)(O)O)C1O (stereo not shown) [Adenosine 3′,5′-diphosphate sodium salt, adenosine 3′,5′-diphosphate]
[2]
  Thres: 0.00025 mM

## Nc1ncnc2c1ncn2[C@@H]1O[C@H](COP(=O)(O)O)[C@@H](O)[C@H]1O [Adenosine 5′-monophosphate disodium salt, reference compound]
[2]
  Thres: 0.003 mM

## Nc1ncnc2c1ncn2C1OC(COP(=O)(O)OS(=O)(=O)O)C(O)C1O (stereo not shown) [Adenosine 5′-phosphosulfate sodium salt, Adenosine 5′-phosphosulfate]
[2]
  Thres: 0.008 mM
[2]; EC50 (mM)
  EC50: 0.03 mM

## Nc1nc2c(ncn2[C@@H]2O[C@H](COP(=O)(O)O)[C@@H](O)[C@H]2O)c(=O)[nH]1 [GMP, guanosine monophosphate, reference compound]
[2]; [3]
  EC50: 0.02 mM

## Nc1nc2c(ncn2[C@@H]2O[C@H](COP(=O)(O)OP(=O)(O)O)[C@@H](O)[C@H]2O)c(=O)[nH]1 [Guanosine 5′-diphosphate sodium salt, Guanosine 5′-diphosphate]
[2]
  Thres: 0.050 mM

## Nc1nc2c(ncn2[C@@H]2O[C@H](COP(=O)(O)OP(=O)(O)OP(=O)(O)O)[C@@H](O)[C@H]2O)c(=O)[nH]1 [Guanosine 5′-triphosphate]
[2]
  Activity: active
  Thres: 0.175 mM

## Nc1nc2c(ncn2[C@@H]2O[C@H](COP(O)(O)=S)C(O)C2O)c(=O)[nH]1 (stereo partly shown) [Guanosine-5′-monophosphorothioate]
[2]
  Thres: 0.0025 mM
  function as activators of T1R1/T1R3: activators of T1R1/T1R3

## CNc1ncnc2c1ncn2[C@H]1C[C@H](OP(=O)(O)O)[C@@H](COP(=O)(O)O)O1 [MRS 2179 ammonium salt hydrate, 2′-Deoxy-N^6-methyl adenosine 3′,5′-diphosphate diammonium salt]
[2]
  Activity: active
  Thres: 0.013 mM

## O=P(O)(O)OC[C@H]1O[C@@H](n2cnc3c(NC4CCCC4)ncnc32)[C@H](O)[C@@H]1O [N6-Cyclopentyladenosine-5′-O-monophosphate]
[2]
  Thres: 0.013 mM

## CNc1ncnc2c1ncn2[C@@H]1O[C@H](COP(=O)(O)O)[C@@H](O)[C@H]1O [N6-Methyladenosine 5′-monophosphate]
[2]
  Thres: 0.020 mM

## CC(=O)Nc1nc2c(ncn2[C@@H]2O[C@H](COP(=O)(O)O)[C@@H](O)[C@H]2O)c(=O)[nH]1 [N-Acetyl-5′-GMP]
[2]
  Thres: 0.025 mM

## NC(=O)c1ncn(C2OC(COP(=O)(O)O)C(O)C2O)n1 (stereo not shown) [Ribavirin 5′-Monophosphate]
[2]
  Thres: 0.175 mM

## O=c1ccn([C@@H]2O[C@H](COP(=O)(O)O)[C@@H](O)[C@H]2O)c(=O)[nH]1 [UMP, uridine monophosphate, reference compound]
[2]; EC50-with Ala (mM)
  EC50: > 30 mM

## Nc1ncnc2c1ncn2[C@@H]1O[C@H](COP(=O)(O)O)[C@@H](O)[C@H]1O [adenosine monophosphate (AMP), adenosine monophosphate, reference compound]
[2]; EC50-with Ala (mM)
  EC50: 0.011 mM

## O=c1nc[nH]c2c1ncn2C1O[C@H](COP(=O)(O)OP(=O)(O)OP(=O)(O)O)[C@@H](O)[C@H]1O (stereo partly shown) [inosine triphosphate (ITP) trisodium salt]
[2]
  Max resp ΔF/F: 0.3 ΔF/F
  Max resp. (ΔF/F): 0.3 ΔF/F
  Thres: 0.02 mM
  Threshold: 0.02 mM

## O=c1[nH]c(=O)c2ncn([C@@H]3O[C@H](COP(=O)(O)O)[C@@H](O)[C@H]3O)c2[nH]1 [xanthosine monophosphate, reference compound]
[2]
  Thres: 0.025 mM
